From publication PMC4434464 (ACS Medicinal Chemistry Letters, 2015)
Values joined by “and” are separate entries in the source; they are usually repeats but may differ in a detail not shown here. Identical values can stand only once. “Also recorded” adds a separate entry of the source.

Legend:
[1] = plasma protein binding, equilibrium dialysis, mouse; assay type: in vitro ADME
[2] = plasma protein binding, equilibrium dialysis, human; assay type: in vitro ADME
[3] = single dose oral PK in SCID mice; assay type: in vivo
[4] = plasma protein binding, equilibrium dialysis, rat; assay type: in vitro ADME
[5] = tested on: H3K27me3 in WSU-DLCL2 cells; test: ELISA of cellular H3K27me3 methyl mark reduction; conditions: read-out: ELISA H3K27me3 IC50; WSU-DLCL2 (Y641F mutant-bearing) cells; n = 20
[6] = tested on: subcutaneous EZH2 mutant KARPAS-422 human DLBCL xenografts; test: KARPAS-422 xenograft antitumor activity; assay type: in vivo, SCID mice; conditions: 250 and 500 mg/kg BID orally, 21 days
[7] = liver microsome clearance, rat; assay type: in vitro ADME; conditions: rat liver microsomes
WSU-DLCL2 cells [8] = test: predicted efficacious plasma exposure; conditions: human; plasma protein binding corrected LCC
[9] = tested on: H3K27 methyl mark in tumor tissue; test: PD in KARPAS-422 tumor samples, H3K27 methyl mark; assay type: in vivo, SCID mice; conditions: day 7, 250 and 500 mg/kg, over the 12 h time-course
[10] = rat oral PK of D-tartrate salt; assay type: in vivo; conditions: for time above LCC: p.o., D-tartrate salt; for AUC(0-inf) / Cmax / Tmax: plasma, po
[11] = 7-day BID PK study, plasma exposure and tolerability; assay type: in vivo, mouse
[12] = liver microsome clearance, human; assay type: in vitro ADME; conditions: human liver microsomes
[13] = liver microsome clearance, mouse; assay type: in vitro ADME; conditions: mouse liver microsomes
[14] = tested on: H3K27 methylation in bone marrow; test: 7-day BID PD, H3K27 methylation in bone marrow; assay type: in vivo, mouse; conditions: 500 mg/kg BID, end of day 7
[15] = plasma exposure in the KARPAS-422 xenograft study; assay type: in vivo, SCID mice; conditions: 250 mg/kg BID, D-tartrate salt, day 7
WSU-DLCL2 cells [16] = test: 11-day proliferation assay, LCC; conditions: n = 4

Compound: CCN(c1cc(C#CCN2CCOCC2)cc(C(=O)NCc2c(C)cc(C)[nH]c2=O)c1C)[C@H]1CC[C@H](N(C)CCOC)CC1 [EPZ011989, N-((4,6-Dimethyl-2-oxo-1,2-dihydropyridin-3-yl)methyl)-3-(ethyl((trans)-4-((2-methoxyethyl)(methyl)amino)cyclohexyl)amino)-2-methyl-5-(3-morpholinoprop-1-yn-1-yl)benzamide]
- fraction unbound [1]: 0.8 ± 0.11
- fraction unbound [2]: 0.97 ± 0.03
- coverage over the LCC (time) ([3]; single oral dose 250 mg/kg): approximately 8 h
- coverage over the LCC (time) ([3]; single oral dose 500 mg/kg): approximately 8 h
- fraction unbound [4]: 0.91 ± 0.06
- IC50 [5]: 94 ± 48 nM
- effect on mean body weights [6]: nominal effect on mean body weights
- antitumor activity ([6]; D-tartrate salt, SCID mice): significant tumor regression at both doses; also recorded: Robust tumor growth inhibition
- percent hepatic extraction (%Eh) [7]: < 14%
- predicted efficacious plasma exposure (WSU-DLCL2 cells [8]): 214 nM and 130 ng/mL
- H3K27 methyl mark in tumor samples [9]: robust H3K27 methyl mark reduction
- time above LCC ([10]; 30 mg/kg): 4 h
- time above LCC ([10]; 100 mg/kg): 8 h
- AUC(0-inf) ([10]; 30 mg/kg): 970 ng·h/mL
- Cmax ([10]; 30 mg/kg): 240 ng/mL
- Tmax ([10]; 30 mg/kg): 2 h
- AUC(0-inf) ([10]; 100 mg/kg): 5600 ng·h/mL
- Cmax ([10]; 100 mg/kg): 1600 ng/mL
- Tmax ([10]; 100 mg/kg): 2.7 h
- AUC(0-inf) ([10]; 300 mg/kg): 10000 ng·h/mL
- Cmax ([10]; 300 mg/kg): 2900 ng/mL
- Tmax ([10]; 300 mg/kg): 2.7 h
- dose that achieves complete coverage over the predicted efficacious plasma level ([11]; 7-day BID study): 500 mg/kg BID
- tolerability ([11]; 125, 250, 500, 750 and 1000 mg/kg BID, 7 days): well tolerated
- percent hepatic extraction (%Eh) [12]: 29%
- percent hepatic extraction (%Eh) [13]: < 11%
- H3K27 methyl mark in bone marrow [14]: complete ablation of the methyl mark
- time over the predicted efficacious plasma levels [15]: ≥ 6 h
- LCC (lowest cytotoxic concentration), 11d proliferation WSU-DLCL2 (WSU-DLCL2 cells [16]): 208 nM and 208 ± 75 (n = 4) nM
